Assay results taken from patent US20220365099A1, “DERIVATIZATION OF BETA-LACTAM ANTIBIOTICS FOR MASSSPEC MEASUREMENTS IN PATIENT SAMPLES” (Roche Diagnostics Operations, Inc., priority 2019, published 2022).

Experiment: Stability in water at room temperature, LC-MS/MS peak areas over 16 h
Type: physicochemical
Conditions: 5 μg/ml in water, timepoints 0, 2, 4, 6, 8 and 16 h
Procedure: The stability of native Piperacillin as well as its hydrolyzed forms was investigated (compounds 5, 9a and 9b, respectively. From the hydrolyzation pathway of Piperacillin (see schematic drawing in FIG. 1) it is obvious that this compound hydrolyzed both on the piperazin ring and the lactam moiety, only one of both compounds is monitored to account for the loss of native Piperacillin). To this end, these compounds were freshly weighed and dissolved in water at a concentration of 1 mg/mL by rolling for 15 minutes at room temperature. Subsequently, these compounds were diluted to 5 μg/ml and measured with a suitable LC-MS/MS method at timepoints 0, 2, 4, 6, 8 and 16 h. […] The peaks were integrated using MultiQuant software and the areas of these peaks depicted in the graphs in FIGS. 2A and 2B.
The stability of double butylamide variants of Piperacillin (compound 7, see FIG. 4) was investigated at 2 MRMs using the identical protocol as in Examples 1.

CCN1CCN(C(=O)N[C@@H](C(=O)N[C@@H]2C(=O)N3[C@@H]2SC(C)(C)[C@@H]3C(=O)O)c2ccccc2)C(=O)C1=O [Piperacillin]
obtained peak-areas over time: decreasing
